The source of these data is publication PMC10095301, “To Target or Not to Target Schistosoma mansoni Cyclic Nucleotide Phosphodiesterase 4A?” (International Journal of Molecular Sciences, 2023).

The structures appear in SMILES notation. Several values for one entry are separate records, joined by “and”; a condition that tells them apart may be missing. Equal values may be shown once. Read-outs that look alike come from different tables or passages of the source. Marks after values point to notes of the source that are not given here. Some results are limits rather than exact numbers.

The test system of series [1] is S. mansoni. In words: In vitro anti-S. mansoni assay: oviposition (egg count). Format: cell-based, Schistosoma mansoni. The conditions noted are these: eggs of days 4 and 5. The procedure: (§1) For these experiments, roflumilast and NPD-0001 were freshly prepared in different concentrations (100 µM, 50 µM, 25 µM 10 µM and 5 µM) in RPMI-1640 medium and tested in 12-well tissue culture plates for S. mansoni survival and ovipositing capacity. To assess the effects of roflumilast and NPD-0001 on egg production in vitro, we used 12-well tissue culture plates containing 6–8 worms, including at least 1 or 2 worm couples and fresh RPMI-1640 medium containing the indicated concentration of the test compound. Worms were incubated overnight in a CO2 incubator at 37 °C. On the 2nd day, worms were washed 3 times with normal saline, fresh medium was added, and the incubation was continued. Each concentration was tested in duplicate wells, and on the 4th day, eggs were counted and discarded, and the medium was changed. On day 5 (the end of the observation period), newly deposited eggs were counted. The final egg number is the total count of days 4 and 5 for each concentration tested. Statistical analysis was done with Student’s unpaired, 2-tailed t-test.

The next series concerns the target SmPDE4A_FL (Schistosoma mansoni, UniProt A0ACM8RGL1). Description: biochemical. The following applies: read-out: SmPDE4A_FL inhibition at 10 µM. The procedure:
(§2) Enzyme velocity was plotted against substrate concentration, and Km values were determined using GraphPad Prism software version 8, analyzing the Michaelis–Menten kinetics of the enzyme.
(§3) Inhibitors were initially tested at 10 µM (triplicate measurements/assay, n = 3). In follow-up experiments, dose-response curves were made in the range 100 µM–10 pM (triplicate measurements/assay, n = 3). […] The reaction was terminated by the addition of 5 µL Lonza Stop Buffer supplemented with 10 µM pan-PDE4 inhibitor NPD-0001. Subsequently, 5 µL of Lonza Detection reagent (diluted to 80% with reaction buffer) was added, and the reaction was incubated for 10 min at 300 rpm. Luminescence was read with a Victor3 luminometer using a 0.1 s/well program. […] The Cheng-Prussoff equation, embedded in the GraphPad Prism software, was used to convert IC50 values to pKi values.

The target in a further series is SmPDE4A_CD (Schistosoma mansoni, UniProt A0ACM8RGL1). Description: biochemical. The conditions noted are these: for inhibition at 10 µM: read-out: SmPDE4A_CD Inhibition at 10 µM (%). As for the experimental part: as §2, §3
Series [2] can be described thus: Cytotoxicity on MRC-5 cells. Format: cell-based. The conditions noted are these: human, MRC-5SV40 lung fibroblasts, read-out: MRC-5 pIC50 (converted). The source says:
Table 4 Effect of SmPDE4A inhibitors on S. mansoni survival and oviposition. | column: MRC-5 pIC50

The subject of series [3] is S. mansoni. Description: In vitro anti-S. mansoni assay: adult worm killing. Format: cell-based, Schistosoma mansoni. The following applies: for %Worm Killing (Female) / %Worm Killing (Male): day 5. As for the experimental part:
Infected Syrian golden hamsters (Mesocrietus auratus) bred and maintained at the Schistosome Biology Supply Center (SBSC) of Theodor Bilharz Research Institute (TBRI), Giza, Egypt, were used. Animals were housed under controlled biological conditions. Animal experiments were conducted in accordance with the Guide for Care and Use of Laboratory Animals and were approved by the Institutional Review Board (IRB) of TBRI. Seven weeks post-infection, hamsters were anesthetized using pentobarbital in a dose of 200 mg/kg body weight and 2 hamsters were sacrificed to obtain the required number of worms. The animals were then perfused using a normal saline solution (0.9% NaCl), and worms were collected. Six to 8 worms per well were placed in a 12-well tissue culture plate, taking care to guarantee 1 to 2 worm pairs/well and fresh RPMI-1640 medium (plus glutamine, 20% newborn calf serum and antibiotics [streptomycin, penicillin and gentamicin]), containing the indicated concentration of the test compound, was added. Worms were incubated overnight in a CO2 incubator at 37 °C. On the 2nd day, worms were examined by microscopy, washed 3 times with normal saline, a fresh medium was added, and the incubation was continued. On the 3rd day, worm motility was observed, and on the 4th day, the medium was again changed. On day 5 (end of the observation period), worms were microscopically examined for their motility and appearance. Each concentration was tested in duplicate wells, and the final recording of percent worm mortality was determined as the number of dead worms [contracted and opaque] divided by the total number of worms ×100).
as §1

Series [4] has as its system S. mansoni. Set-up: method as in PMID 31711973. The following applies: data from Botros et al. and this study, cited from earlier work.
For a further series, the target named is SmPDE4A. Further details: method as in PMID 28704396. The conditions noted are these: estimated value; cited from earlier work.
Series [5] concerns S. mansoni. Set-up: method as in PMID 31711973. The conditions noted are these: data from Botros et al. and this study, cited from earlier work. This is another data set of the same source.
[6] abbreviates: SmPDE4A_CD pKi, mean ± SEM, n ≥ 3, cAMP at 2 × Km (6 µM), Cheng-Prusoff.
Setting [7] is: read-out: SmPDE4A_CD pKi (converted).

For `COc1ccc(C2=NN(C3CCCCCC3)C(=O)[C@H]3CC=CC[C@@H]23)cc1OCCCCOc1ccc(-c2nnn[nH]2)cc1` [NPD-0001], the “% Oviposition Reduction” value in the series on S. mansoni [1] (5 µM) is given as 0%; in the series on S. mansoni [1] (10 µM), 0%; in the series on S. mansoni [1] (25 µM), 13%; with S. mansoni [1] (50 µM), 23%; in the series on S. mansoni [1] (100 µM), 100 * %. For the same compound, the inhibition at 10 µM on SmPDE4A_FL and on SmPDE4A_CD was above 50% each time. The IC50 against SmPDE4A_CD was 1580 nM; in series [2], 7.94 µM. The Ki on SmPDE4A_CD (setting [6]) is 126 nM. Besides, the “%Worm Killing (Female)” value in the series with S. mansoni [3] (5 µM), in the series with S. mansoni [3] (10 µM), in the series with S. mansoni [3] (25 µM) and with S. mansoni [3] (50 µM) was 0% in each case. Further, the “%Worm Killing (Male)” value was 0% in the series on S. mansoni [3] (5 µM); 0% with S. mansoni [3] (10 µM); 0% in the series with S. mansoni [3] (25 µM); 0% with S. mansoni [3] (50 µM); 63% with S. mansoni [3] (100 µM).
Turning to `COc1ccc(C2=NN(C3CCN(C(=O)CN4C(=O)CCC4=O)CC3)C(=O)C3CC=CCC23)cc1OC` (stereo not drawn) [NPD-0007], the inhibition at 10 µM on SmPDE4A_FL (10 µM compound, toolbox screen) is above 50%; at SmPDE4A_CD (10 µM compound), above 50%. The Ki at SmPDE4A_CD (setting [7]) was 501 nM. Further, the IC50 on SmPDE4A_CD (representative dose-response curves, Figure 4B, read-out: pIC50 inhibition of enzymatic activity of SmPDE4A_CD (converted)) was 3980 nM.
`COc1ccc(C(=O)Nc2c(Cl)cncc2Cl)cc1OC` [NPD-0446]: at SmPDE4A_CD (setting [7]), the Ki is 3980 nM.
Consider `COc1ccc(C(=O)Nc2c(Cl)cncc2Cl)cc1OCc1ccccc1` [NPD-0546], for which the inhibition at 10 µM on SmPDE4A_CD (10 µM compound) came out at 8%.
On to `COc1ccc(C(=O)Nc2c(Cl)cncc2Cl)cc1` [NPD-0548], for which the inhibition at 10 µM on SmPDE4A_CD (10 µM compound) is 16%.
The same measure, in the same setting: as for `COc1ccc(C(=O)Nc2c(Cl)cncc2Cl)cc1Cl` [NPD-1180], the figure is 9%.
As to `O=C(Nc1ccncc1Cl)c1ccc(OC(F)F)c(OCC2CC2)c1` [NPD-1204], the Ki on SmPDE4A_CD (setting [7]) is 251 nM.
On to `O=C(Nc1cnccc1Cl)c1ccc(OC(F)F)c(OCC2CC2)c1` [NPD-1205], for which the inhibition at 10 µM at SmPDE4A_CD (10 µM compound) was determined as 21%. Besides, the “reduction in SmPDE4A inhibitory potency (fold)” value on SmPDE4A_CD (relative to roflumilast) is “three-fold reduction in potency”.
The compound `O=C(Nc1c(Cl)c[n+]([O-])cc1Cl)c1ccc(OC(F)F)c(OCC2CC2)c1` [NPD-2980, roflumilast N-oxide] gave a Ki at SmPDE4A_CD (setting [6]) of 63.1 nM.
On to `COc1ccc(NC(=O)c2ccc(OC(F)F)c(OCC3CC3)c2)cc1Cl` [NPD-3000], for which, on SmPDE4A_CD (10 µM compound), the inhibition at 10 µM is 15%.
The same measure, in the same setting: the same measure for `O=C(Nc1cccc(Cl)c1)c1ccc(OC(F)F)c(OCC2CC2)c1` [NPD-3075]: 4%.
As to `O=C(Nc1ccncc1)c1ccc(OC(F)F)c(OCC2CC2)c1` [NPD-3076], the inhibition at 10 µM on SmPDE4A_CD (10 µM compound) turned out to be 46%.
On to `O=C(Nc1ccccc1Cl)c1ccc(OC(F)F)c(OCC2CC2)c1` [NPD-3080], for which, at SmPDE4A_CD (setting [7]), the Ki was 2000 nM. For the same compound, at SmPDE4A_CD (relative to NPD-1204), the “reduction in SmPDE4A inhibitory potency (fold)” value is reported as 10 fold.
With `O=C(Nc1c(Cl)cncc1Cl)c1ccc(F)c(OCC2CC2)c1` [NPD-3093], the Ki at SmPDE4A_CD (setting [7]) is 2510 nM.
Same read-out and setting: as for `COc1ccc(C(=O)Nc2c(Cl)cncc2Cl)cc1OCC1CC1` [NPD-3094], the figure is 398 nM.
The same measure, in the same setting: the same measure for `O=C(Nc1c(Cl)cncc1Cl)c1ccc(Cl)c(OCC2CC2)c1` [NPD-3096]: 794 nM.
With `COc1ccc(C(=O)Nc2c(Cl)cncc2Cl)cc1OC1CCCC1` [piclamilast], the inhibition at 10 µM at SmPDE4A_FL and at SmPDE4A_CD was above 50% throughout. In addition, the IC50 on SmPDE4A_CD was 3160 nM. On SmPDE4A_CD (setting [6]), the Ki is 316 nM and 63.1 nM.
Turning to `O=C(C1CCCCC1)N1CC(=O)N2CCc3ccccc3C2C1` (stereo not drawn) [praziquantel], in the series on S. mansoni [1] (5 µM), the “% Oviposition Reduction” value is 100%. Also, the worm killing in the series with S. mansoni [3] (5 µM (lowest concentration tested), sex not specified) is listed as 100%.
For the compound `O=C(Nc1c(Cl)cncc1Cl)c1ccc(OC(F)F)c(OCC2CC2)c1` [roflumilast], the “% Oviposition Reduction” value with S. mansoni [4] (5 µM) is reported as 35 * %; in the series with S. mansoni [4] (10 µM), 39 * %; in the series on S. mansoni [4] (25 µM), 42 * %; in the series on S. mansoni [4] (50 µM), 49 * %; with S. mansoni [4] (100 µM) it was 52 * %. In addition, the inhibition at 10 µM at SmPDE4A_FL and at SmPDE4A_CD was above 50% each time. The IC50 was 631 nM against SmPDE4A_CD and above 63.1 µM in series [2]. The compound further had a Ki on SmPDE4A_CD (setting [6]) of 79.4 nM. Moreover, the “SmPDE4A pKi (estimated)” value at SmPDE4A is listed as 7.8. The “%Worm Killing (Female)” value with S. mansoni [5] (5 µM), with S. mansoni [5] (10 µM), in the series with S. mansoni [5] (25 µM), in the series with S. mansoni [5] (50 µM) and in the series with S. mansoni [5] (100 µM) was 0% each time. Besides, the “%Worm Killing (Male)” value with S. mansoni [5] (5 µM), with S. mansoni [5] (10 µM), with S. mansoni [5] (25 µM), in the series on S. mansoni [5] (50 µM) and in the series with S. mansoni [5] (100 µM) was 0% throughout.

In general, inhibition refers to the share of the control response that was lost under treatment.
